Assay results reported in article PMC9980915, “MYCMI-7: A Small MYC-Binding Compound that Inhibits MYC: MAX Interaction and Tumor Growth in a MYC-Dependent Manner” (Cancer Research Communications, 2022).

Columns and labels:
MYC = MYC (Homo sapiens, UniProt P01106); assay: biochemical
TOP2A = TOP2A (Homo sapiens, UniProt P11388); assay: in vitro TOP2A kDNA decatenation assay; format: biochemical
Sequence of TOP2A (P11388 whole entry): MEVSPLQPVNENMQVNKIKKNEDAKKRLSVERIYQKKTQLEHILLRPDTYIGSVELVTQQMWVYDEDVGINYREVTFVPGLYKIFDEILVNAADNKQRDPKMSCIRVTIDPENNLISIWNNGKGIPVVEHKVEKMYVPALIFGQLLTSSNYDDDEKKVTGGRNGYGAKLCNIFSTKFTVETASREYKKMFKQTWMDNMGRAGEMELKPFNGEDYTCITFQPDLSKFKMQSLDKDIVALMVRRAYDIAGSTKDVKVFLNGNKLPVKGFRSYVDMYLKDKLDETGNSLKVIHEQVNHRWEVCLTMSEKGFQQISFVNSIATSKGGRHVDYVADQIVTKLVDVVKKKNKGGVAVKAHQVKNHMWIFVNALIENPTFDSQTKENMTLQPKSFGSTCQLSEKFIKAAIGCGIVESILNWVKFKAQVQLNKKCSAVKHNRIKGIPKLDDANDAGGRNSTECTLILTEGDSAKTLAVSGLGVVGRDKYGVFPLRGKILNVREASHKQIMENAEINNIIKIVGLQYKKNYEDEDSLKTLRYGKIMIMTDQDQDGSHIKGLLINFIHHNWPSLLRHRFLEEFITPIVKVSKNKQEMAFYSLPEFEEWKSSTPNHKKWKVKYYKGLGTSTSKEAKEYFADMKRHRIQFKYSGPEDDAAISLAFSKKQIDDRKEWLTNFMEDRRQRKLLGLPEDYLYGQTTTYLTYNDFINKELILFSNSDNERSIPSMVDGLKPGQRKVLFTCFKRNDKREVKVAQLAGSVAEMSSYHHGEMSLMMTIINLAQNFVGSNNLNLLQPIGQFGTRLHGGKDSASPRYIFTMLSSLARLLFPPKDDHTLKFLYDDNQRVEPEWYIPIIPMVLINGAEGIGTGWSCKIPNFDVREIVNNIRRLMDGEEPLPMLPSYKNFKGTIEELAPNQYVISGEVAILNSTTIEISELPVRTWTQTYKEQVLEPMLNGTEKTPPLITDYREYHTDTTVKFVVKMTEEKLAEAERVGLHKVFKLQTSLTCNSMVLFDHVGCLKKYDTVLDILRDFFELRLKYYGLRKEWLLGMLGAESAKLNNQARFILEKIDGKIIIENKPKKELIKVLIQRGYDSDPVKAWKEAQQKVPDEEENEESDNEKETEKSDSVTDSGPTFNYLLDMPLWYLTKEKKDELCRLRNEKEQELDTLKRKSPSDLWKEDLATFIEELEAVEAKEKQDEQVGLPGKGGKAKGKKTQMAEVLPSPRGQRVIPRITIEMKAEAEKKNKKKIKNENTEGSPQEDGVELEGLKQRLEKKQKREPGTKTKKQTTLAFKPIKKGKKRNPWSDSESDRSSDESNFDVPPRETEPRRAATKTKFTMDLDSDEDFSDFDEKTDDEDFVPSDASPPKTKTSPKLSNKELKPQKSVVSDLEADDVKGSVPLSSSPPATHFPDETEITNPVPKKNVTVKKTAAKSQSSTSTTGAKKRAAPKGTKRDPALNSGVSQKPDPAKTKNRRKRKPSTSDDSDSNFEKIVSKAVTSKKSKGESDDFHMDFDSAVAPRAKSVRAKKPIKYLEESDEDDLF

Sequence of MYC (P01106 368-454 limits assumed): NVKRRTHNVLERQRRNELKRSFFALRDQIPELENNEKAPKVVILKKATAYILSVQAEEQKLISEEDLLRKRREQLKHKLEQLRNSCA

| Structure (SMILES) | Kd (MYC) [µM] | in vitro TOP2A kDNA decatenation assay (TOP2A) |
| --- | --- | --- |
| CCN(CC)CC[n+]1ccc2c(C)c3[nH]c4ccccc4c3c(C)c2c1 [MYCMI-7, 2-(5,11-Dimethyl-6H-25-pyrido[4,3-b]carbazol-2-yl)-N,N-diethylethanamine acetate] | ~4 | > 10 µmol/L |
| COc1cccc2c1C(=O)c1c(O)c3c(c(O)c1C2=O)C[C@@](O)(C(=O)CO)C[C@@H]3O[C@H]1C[C@H](N)[C@H](O)[C@H](C)O1 [doxorubicin, reference compound] | – | ~ 3 μmol/L |
